Peptide text beside a SMILES is read from it. * marks the point of attachment. Palmitoyl = CCCCCCCCCCCCCCCC(=O)*
Key:
[1] = biological target: T1, ecto-F1-ATPase (HepG2 cells) (Homo sapiens, UniProt P06576); assay: ecto-F1-ATPase activity: extracellular ADP content, luciferin-luciferase assay; assay type: cell-based; conditions: HepG2, 5 min; for extracellular ADP concentration (ecto-F1-ATPase hydrolytic activity): peptide 0.1 to 5 μM (formula (I)) or 1 μM, effect blunted by IF1 1 μM
T1 construct: host or cells: HepG2
Protocol: The human hepatocyte cell line HepG2 was obtained from the American Type Culture Collection (#HB-8065). HepG2 were cultured in Dulbecco's Modified Eagle's Medium (DMEM)—high glucose (D0822, Sigma-Aldrich) supplemented with 10% fetal bovine serum (10270098, Life technologies), 1% Penicillin-Streptomycin solution (P0781, Sigma-Aldrich). HepG2 cells were seeded on 24-well plates at 75,000 cells/well (Day 0). After 24 hours of growing, cells were serum starved for 24 h in order to synchronize cell cycles (Day 1) and then replaced additional 24 h in complete cell growth medium (Day 2). On day 3, cells were washed and equilibrated in fresh DMEM—high glucose without red phenol for 1 h (D1145, Sigma-Aldrich).
The cells were then treated 5 min with different concentration of peptide of formula (I) (0.1 to 5 μM), the peptide of formula (II) (1 μM), SCR (1 μM), SCR-K-16 (1 μM) or apoA-I (10 μg/mL) purified from human plasma.
Specific ecto-F1-ATPase activation was assessed in the presence of IF1 protein (1 μM), a natural inhibitor of F1-ATPase that interacts with the β-subunit to inhibit the ATP hydrolysis activity [5].
Supernatants were then collected and centrifuged (10,000 g, 5 min, 4° C.) and processed for ADP and ATP measurement. For ADP measurement, ADP was converted into ATP in 150 mM NaCl, 5 mM KCl, 2 mM MgCl2, pH 7.5 buffer containing 0.5 mM phosphoenolpyruvate (PEP) and pyruvate kinase (PK, 6 U per point for 15 min at 37° C.). For ATP measurement, 100 μl of sample was analyzed using the ATP bioluminescence assay kit CLS II (Roche Diagnostics). Samples were added to the ATP assay mixture and luminescence was measured in a microplate reader Infinite F500 (Tecan, Switzerland) for 1000 ms. The ATP standard curve was produced in the same medium as the samples and in the 10^−5 to 10^−10 M concentration range. The ADP concentration was then calculated as the ATP concentration following ADP conversion minus the basal ATP concentration. Data are expressed as nanomoles of ADP produced.

[2] = test system: C57B/L6J mice fed western-diet; assay: Western diet-induced hepatic steatosis mouse model; assay type: in vivo; conditions: ip daily 1 mg/kg/day
Protocol: Wild-type C57B/L6J male mice were purchased from Janvier Labs (Le Genest Saint Isle, France). Mice were caged in animal rooms under specific pathogen free conditions at the animal facility of Rangueil (Anexplo platform, US006, Toulouse, France) with a light/dark schedule of 12 h/12 h. At the initiation of the dietary intervention, all animals were 8 weeks old and were fed ad libitum with a normal chow diet (#V1535 R/M-H, Ssniff, Germany). All animal experimental procedures were conducted in accordance with institutional guidelines on animal experimentation approved by the local ethical committee of animal care and are conformed to the guidelines from Directive 2010/63/EU of the European Parliament on the protection of animals used for scientific purposes or the NIH guideline.
8 weeks old mice were fed fed western-diet for 4-weeks (Envigo #TD.88137 containing 0.2% cholesterol, 42% kcal from fat, 34% sucrose by weight). For the 2 last weeks of the 4-week period, mice were daily intraperitoneally administrated at 1 mg/kg/day with the peptide of formula (I) or PBS (control group). Following the treatment period, mice were fasted overnight, anesthetized by intra-peritoneal injection of ketamine and xylazine hydrochloride then killed by exsanguination. Body weight, liver triglyceride content, plasma lipids and transaminases were determined at sacrifice.
100 mg of liver tissue were homogenized in 900 μL of phosphate buffer pH 7.4 until complete tissue lysis. Lipids were extracted by mixing 125 μL of lysates with 1 mL of CHCl3:MeOH (2:1). After centrifugation, the chloroform phase was evaporated under nitrogen flux, and the dried residue was solubilized in 200 μL of isopropanol. Triglycerides were measured using commercial kits based on GPO-PAP detection method (Biolabo SA, Maizy, France). Results were expressed as mg of triglycerides/g liver.
Triglycerides and cholesterol levels were determined using commercial colorimetric kits (Biolabo SA, Maizy, France) based on CHOD-PAP and GPO-PAP detection methods, coupling enzymatic reaction and spectrophotometric detection of reaction end products. Alanine-aminotransferase (ALT) and aspartate-aminotransferase (AST) levels were determined using a COBAS-MIRA+ biochemical analyser (Anexplo facility, Toulouse, France).
Blood glucose levels were measured by tail vein sampling with portable glucometer (Accu-check, Roche) 30 min before oral glucose load and at 0, 15, 30, 45, 60, 90 and 120 min after oral glucose load. Plasma insulin concentration was determined 30 min before and 15 min after glucose loading in 5 μL of plasma using an ELISA kit (Mercodia, Uppsala, Sweden) according to the manufacturer's instructions.

wild-type C57B/L6J mice = assay: Femoral artery blood flow in conscious mice; assay type: in vivo, mouse; conditions: data not shown
Source text: According to the protocol disclosed in [5], the peptide of formula (I) increased femoral artery blood flow in conscious wild-type C57B/L6J mice in a process that strictly depend on endothelial NO production (data not shown).

Row | Compound | extracellular ADP concentration (ecto-F1-ATPase hydrolytic activity) [1] | oral glucose tolerance (OGTT) ([2]; OGTT 10 days after initiation) | basal insulin level ([2]; p<0.05 vs PBS) | plasma HDL-cholesterol (HDL-C) level ([2]; two weeks) | plasma triglycerides level ([2]; two weeks) | liver/body weight ratio ([2]; two weeks, p<0.01 vs PBS) | hepatic triglyceride concentration ([2]; two weeks, p<0.05 vs PBS) | plasma ALT level ([2]; two weeks, p<0.05 vs PBS) | plasma level of total cholesterol ([2]; two weeks, p<0.05 vs PBS) | hepatic steatosis ([2]; two weeks, vs PBS) | femoral artery blood flow (wild-type C57B/L6J mice) | concentration at which maximum efficacy on extracellular ADP is reached [1]
1 | CCCCCCCCCCCCCCCC(=O)NCCCC[C@H](NC(=O)[C@H](CCC(=O)O)NC(=O)[C@H](CCCNC(=N)N)NC(=O)[C@H](CO)NC(=O)[C@H](CCC(N)=O)NC(=O)[C@H](C)NC(=O)[C@H](CCCNC(=N)N)NC(=O)[C@H](Cc1ccccc1)NC(=O)[C@H](Cc1ccc(O)cc1)NC(=O)[C@H](CCCNC(=N)N)NC(=O)[C@H](CCC(=O)O)NC(=O)[C@H](CCC(=O)O)NC(=O)[C@H](CCC(=O)O)NC(=O)[C@H](C)NC(=O)[C@H](CCC(N)=O)NC(=O)[C@H](CCC(=O)O)NC(=O)[C@H](CCCNC(=N)N)NC(=O)[C@H](CCCCN)NC(=O)CNC(=O)[C@H](Cc1ccccc1)NC(=O)[C@H](C)NC(=O)CNC(=O)CNC(=O)[C@H](C)NC(=O)[C@H](CCC(=O)O)NC(=O)[C@H](CCCNC(=N)N)NC(=O)[C@@H](NC(=O)[C@H](CO)NC(=O)CNC(=O)[C@H](C)NC(=O)CNC(=O)[C@H](CCCNC(=N)N)NC(C)=O)[C@@H](C)CC)C(N)=O [peptide of formula (II), CH3CO-[SEQ ID NO: 1]-K-[palmitoyl]-NH2] (Ac-RGAGSIREAGGAFGKREQAEEERYFRAQSREK(Palmitoyl)-NH2) | stimulated | improved | decreased | no effect | no effect | decrease | reduction | significantly reduced | significantly decrease | significantly reduced | – | –
2 | Ac-RGAGSIREAGGAFGKREQAEEERYFRAQSRE-NH2 [peptide of formula (I), CH3CO-[SEQ ID NO: 1]-NH2] | increased | – | – | – | – | – | – | – | – | – | increased | 1 µM

— patent US20230050846A1, “TREATMENT OF HEPATIC AND CARDIOVASCULAR DISORDERS” (LIFESEARCH, priority 2019, published 2023)
